Data as given in patent US8415152B2, “Therapeutical composition containing dentritic cells and use thereof” (Helmholtz-Zentrum für Infektionsforschung GmbH, priority 2003, dated 2013).

B1: DerP1: affinity purified major allergen of the house-dust mite Dermatophagoides pteronyssinus (protein, UniProt P08176 99-320, looked up)
Peptidase 1: TNACSINGNAPAEIDLRQMRTVTPIRMQGGCGSCWAFSGVAATESAYLAYRNQSLDLAEQELVDCASQHGCHGDTIPRGIEYIQHNGVVQESYYRYVAREQSCRRPNAQRFGISNYCQIYPPNVNKIREALAQTHSAIAVIIGIKDLDAFRHYDGRTIIQRDNGYQPNYHAVNIVGYSNAQGVDYWIVRNSWDTNWGDNGYGYFAANIDLMMIEEYPYVVIL

Assays:
Balb/c mice [1] = assay: Lung function measurement: airway hyperreactivity to methacholine, head-out body plethysmography; format: in vivo, mouse; conditions: OVA-sensitized mice, 72 h after i.t. treatment, 24 h after last allergen challenge; mean±SEM
Protocol: Animals were sensitized and challenged as previously described (Glaab, T., A. Daser, A. Braun, U. Neuhaus-Steinmetz, H. Fabel, Y. Alarie, and H. Renz. 2001. Am. J. Physiol Lung Cell Mol. Physiol 280:L565-L573). Briefly, 10 μg ovalbumin (OVA, grade VI, Sigma, Müchen, Germany) was adsorbed to 1 mg Imject Alum (Pierce, Rockford, USA) in a total volume of 200 μl 0.9% NaCl solution and intraperitonealy injected three times on days 0, 14 and 21. Negative controls were injected with the solution lacking ovalbumin. All groups were subjected to inhalative allergen challenge on days 28 and 29. […] A lung deposition of approximately 8 μg OVA per mice in each session was calculated by a respiratory minute volume of 35 ml/min an a deposition factor of 0.15 as brought forward by Raabe et al. (Raabe, O. G., J. E. Bennick, M. E. Light, C. H. Hobbs, R. L. Thomas, and M. I. Tillery. 1973. Toxicol. Appl. Pharmacol. 26:264-273). […]
24 hours after the last allergen challenge, airway hyperreactivity to methacholine (Mch) was determined in non-anaesthesized spontaneously breathing animals using head-out body plethysmography, as described before (Glaab, T., A. Daser, A. Braun, U. Neuhaus-Steinmetz, H. Fabel, Y. Alarie, and H. Renz. 2001. Am. J. Physiol Lung Cell Mol. Physiol 280:L565-L573). […] Respiratory signals were analyzed using the Hem 3.4 system (Notocord systems S. A., Crossy-sur-Seine, F).

autologous lymphocytes [2] = assay: Cytokines in coculture of pretreated DC with autologous lymphocytes (ELISA); format: cell-based, human; conditions: for IFN-g in coculture supernatant / IL-4 in coculture supernatant: DC:lymphocytes 1:3; for IFN-g concentration in coculture supernatant / IL-4 concentration in coculture supernatant: DerP1 pulsed DC, day 3 of coculture
Protocol: (§1) On day 5 of the culture, DC were pulsed with affinity purified house dust mite allergen adjusted to a concentration of 100 ng/ml of DerP1 or with PBS as control. […] The respective optimal concentrations were experimentally determined using the highest expression of stimulatory cell surface molecules as read-out system. The substances were incubated on the cells for 48 hours.
(§2) Cytokine concentrations were determined in DC culture supernatant collected on day 7 (TNF-α, IL-10, IL-12) and in the supernatant of the coculture of DC and autologous lymphocytes collected on day 10 (IFN-γ, IL-4). Duo-Set ELISA kits for the detection of IL-12p70, IL-10, TNF, IFN-γ, IL-4 and IL-5 were purchased (R&D Systems, Wiesbaden, Germany) and performed according to the manufacturers instructions.
(§3) A portion of DC was used for coculture experiments with autologous lymphocytes from day 7 to day 13. To remove free stimulants, DC were harvested and washed twice. The cells were titrated in fresh medium in fresh round-bottom microtiterplates. 1×10^5 vital cryopreserved autologous lymphocytes were added at ratios of DC to lymphocytes from 1:3 to 1:2187 in a final volume of 200 μl in serum-free XVIVO-15. No further stimulants were given.

autologous lymphocytes [3] = assay: Proliferation assay (3H-thymidine) in coculture of DC and autologous lymphocytes; format: cell-based, human; conditions: DC of allergics, allergen pulsed, 3H-thymidine day 12 for 18 hours
Protocol: as §3
The coculture was pulsed with 5 μCi/ml ^3H-thymidine (Amersham Buchler, Braunschweig, Germany) on day 12. After 18 hours, the cells were harvested on filtermats (Canberra-Packard, Dreieich, Germany). After drying, 20 μl of liquid scintillator (Can berra-Packard) were added and the plates were sealed. Counts per minute were determined on a Topcount Microplate Scintillation Counter (Can berra-Packard).

monocyte derived DC [4] = assay: Flow cytometric analysis of DC surface molecules; format: cell-based, human; conditions: for Surface expression of CD80, CD86, CD40, HLA-DR, CD83 on DC: immature DC of allergics, 48 h incubation
Protocol: (§4) Monocyte derived DC were generated as previously described (Weigt et al. Immunobiol. 207, 223-233 (2003). Briefly, blood was centrifuged to remove platelets, diluted and layered over Ficoll-Paque (Amersham Pharmacia, Uppsala, Sweden). After density gradient centrifugation, PBMC were collected, and monocytes were enriched using the MACS system and anti-CD14 beads (Miltenyi Biotec, Bergisch Gladbach, Germany). The CD14 positive fraction (monocytes) was cultured in the serum-free medium X-VIVO 15 supplemented with 100 U/ml penicillin and […] streptomycin (all BioWhittaker, Verviers, Belgium). The CD14 negative fraction containing the lymphocytes was cryopreserved in 90% FCS (GIBCO, Eggenstein-Leopoldhafen, Germany) and 10% DMSO (SIGMA, Taufkirchen, Germany). On day 1 and day 5 after isolation, 800 U/m of recombinant GM-CSF and 500 U/ml of recombinant IL-4 (Strathmann Biotec, Hamburg, Germany) were added to the monocyte culture to induce DC.
as §1
For immunophenotyping, an aliquot of DC was harvested after 7 days of culture and washed in PBS supplemented with 0.5% FCS and 10 mM NaN3 (SIGMA, Taufkirchen, Germany). After 30-minute-incubation at 4° C. with one of the following combination of labeled murine mAbs (isotype control FITC/isotype control PE, anti-CD83 FITC, anti-CD86 FITC/anti-CD40 PE, anti-CD 80 FITC/anti-HLA-DR PE, anti-CD1a FITC/anti-CD14 PE (all BD Biosciences, Heidelberg, Germany)) cells were washed and analysed on a EPICS XL-MCL (Beckmann Coulter, Krefeld, Germany) flow cytometer. Data were processed with the Expo 32 cytometer software (Beckmann Coulter). The expression of the cell surface molecules was shown in 1 parameter Histograms (FIG. 2) or evaluated using the median of fluorescence intensity (MFI) after subtraction of the values of the isotype control (Tab. 1).

Balb/c mice [5] = assay: Cytokines in BALF of OVA-sensitized and challenged mice (ELISA); format: in vivo, mouse; conditions: i.t. treatment day 27 (20 ng MALP-2, 10^4 U IFN-γ); 24 h after last allergen challenge
Protocol: Female Balb/c mice (Charles River, Sulzfeld, Germany) were used at the age of 6-8 weeks In all experiments. They were fed with ovalbumin-free laboratory food and tap water ad libitum and held in a regular 12 h dark/light cycle at a temperature of 22° C. Before experimental start, mice were acclimated for a period of 7 days.
(§5) Animals were sensitized and challenged as previously described (Glaab, T., A. Daser, A. Braun, U. Neuhaus-Steinmetz, H. Fabel, Y. Alarie, and H. Renz. 2001. Am. J. Physiol Lung Cell Mol. Physiol 280:L565-L573). Briefly, 10 μg ovalbumin (OVA, grade VI, Sigma, Müchen, Germany) was adsorbed to 1 mg Imject Alum (Pierce, Rockford, USA) in a total volume of 200 μl 0.9% NaCl solution and intraperitonealy injected three times on days 0, 14 and 21. Negative controls were injected with the solution lacking ovalbumin. All groups were subjected to inhalative allergen challenge on days 28 and 29. OVA-aerosols (grade V, Sigma) with a mean mass diameter of 1.49 μm were generated from a solution of 1 mg/ml OVA in 0.9% NaCl using a modified Pad Master system (Pari Werke, Sternberg, Germany) for 20 min. A lung deposition of approximately 8 μg OVA per mice in each session was calculated by a respiratory minute volume of 35 ml/min an a deposition factor of 0.15 as brought forward by Raabe et al. (Raabe, O. G., J. E. Bennick, M. E. Light, C. H. Hobbs, R. L. Thomas, and M. I. Tillery. 1973. Toxicol. Appl. Pharmacol. 26:264-273). 3 gives the test groups.
(§6) The trachea was canulated under direct vision, and a total volume of 50 μl containing the substances was instillated using a syringe.
(§7) Mice were killed with an i.p. injected overdose of pentobarbital-Na (Menial, Halbergmoos, Germany) after the lung function. In a satellite group, mice were left untouched after the last allergen challenge and kept for another 7 days. Afterwards, they were dissected in the same way as the main groups as follows. Blood was obtained via punction of the vena cava. Red blood cells were lysed by incubation with 0.9% NH4Cl (Sigma) in H2O for 10 min, white blood cells were automatically counted using an AcT8 counter (Beckman Coulter, Krefeld, Germany) and cytospins were prepared for differential cell count. The trachea was canulated and broncho-alveolar lavage (BAL) was performed with 0.8 ml ice cold saline two times. BAL cells were separated by centrifugation, counted and cytospins were prepared as described above. The BAL fluid (BALF) was aliquoted, shock frozen in liquid nitrogen and stored at −80° C. until the determination of cytokines. After BAL, the lungs were filled with Tissue-Tek O.C.T. (Sakura Finetek, Zoeterwoude, Netherlands) diluted 1:2 in PBS and the trachea was ligated. Next, the right lungs were excised, subsequently shock frozen in liquid nitrogen and stored at −80° C. for histology.
Duo-Set ELISA kits for the detection of IL-4, IL-5, IL-13 and IL-12p70 in the BAL supernatant were used (R&D Systems, Wiesbaden, Germany) according to the manufacturer's instructions.

monocyte derived DC [6] = assay: Cytokines in DC culture supernatant (ELISA); format: cell-based, human; conditions: day 7 of culture; for IL-10 production in DC culture supernatant / IL-12p70 production in DC culture supernatant: compared to untreated DC
Protocol: as §4, §1, §2

Balb/c mice [7] = assay: Differential cell count of BAL and blood, OVA-sensitized mice; format: in vivo, mouse; conditions: i.t. treatment day 27; 24 h after last allergen challenge
Protocol: as §5, §6, §7
Cytospins were stained applying the Pappenheim method according to standard protocols. […] 300 cells of each sample were determined, and absolute counts of macrophages, lymphocytes, eosinophilic and neutrophilic granulocytes were calculated.

autologous lymphocytes [8] = conditions: DC treated in vitro; Weigt et al. 2003; cited from earlier work
[9] = allergic donors, pretreated DC:lymphocytes 1:3, mean±SEM of 6 experiments
[10] = DC of allergics, 48 h treatment, DerP1 100 ng/ml, MALP-2 100 pg/ml, IFN-g 5000 U/ml, mean±SEM of 6 experiments

Molecule | ED50: concentration of Mch needed to decrease the EF50 to 50% of baseline (Balb/c mice [1]) [mg/ml Mch] | IFN-g in coculture supernatant (autologous lymphocytes [2]; allergic donors) | IL-4 in coculture supernatant (autologous lymphocytes [2]; allergic donors) | Lymphocyte proliferation (autologous lymphocytes [3]) | Surface expression of CD80, CD86, CD40, HLA-DR, CD83 on DC (monocyte derived DC [4]) | IL-4 in BALF (Balb/c mice [5]) | IL-5 and IL-13 in BALF (Balb/c mice [5]) | IL-12p70 in BALF (Balb/c mice [5]) | TNF production in DC culture supernatant (monocyte derived DC [6]) | IL-10 production in DC culture supernatant (monocyte derived DC [6]) | IL-12p70 production in DC culture supernatant (monocyte derived DC [6]) | Eosinophils in BAL (Balb/c mice [7]) | Number of BAL lymphocytes (Balb/c mice [7]) | other results
IFN-γ: interferon gamma, IFNγ receptor agonist (Strathmann Biotec) | 17.67±3.05 | heightened lymphopcyte IFN-g production | little effect on IL-4 | increased proliferation | upregulated only HLA-DR | did not affect IL-4 | reduced the levels of IL-5 and IL-13 | failed to induce IL-12p70 | comparable moderate release | did not influence | did not influence | raised the eosinophil counts even further | increased | –
macrophage activating lipopeptide-2 [MALP-2, reference compound] | 20.13±1.36 | lowered IFN-g less compared to allergen pulsed DC | reduced IL-4 to control levels | exceeded by MALP-2 | significantly upregulated CD 40, CD 80, CD 83 and CD86 | reduce all Th2-markers to the level of the unsensitized negative control | reduce all Th2-markers to the level of the unsensitized negative control | did not amplify IL-12p70 | comparable moderate release | induced IL-10 | no effect on IL-12 | raised the eosinophil counts even further | increased | Polarization of lymphocytes into T-helper (Th-1) cells (autologous lymphocytes [8]): no significant polarization; Proliferation of autologous lymphocytes (autologous lymphocytes [8]): marked proliferation
B1 | – | reduction of IFN-g | increase in IL-4 | only a very weak effect on lymphocyte proliferation | no effect on the expression of the surface molecules | – | – | – | low levels | did not influence | did not influence | – | – | IFN-γ production in coculture (autologous lymphocytes [2]; [9]): 3.6 +/− 2.1; IL-4 production in coculture (autologous lymphocytes [2]; [9]): 13.6 +/− 7.3; IFN-g concentration in coculture supernatant (autologous lymphocytes [2]; allergics, ±SEM): 3.6 pg/mL; IL-4 concentration in coculture supernatant (autologous lymphocytes [2]; allergics, ±SEM): 13.6 pg/m; IL-4 concentration in coculture supernatant (autologous lymphocytes [2]; healthy donors): below the detection limit; IFN-g concentration in coculture supernatant (autologous lymphocytes [2]; non-allergics (healthy donors), ±SEM): 8.7 pg/m; CD1a median fluorescence intensity (monocyte derived DC [4]; [10]): 265.2 +/− 106.8; CD 14 median fluorescence intensity (monocyte derived DC [4]; [10]): 17.6 +/− 9.8; CD 40 median fluorescence intensity (monocyte derived DC [4]; [10]): 733 +/− 160.5; CD 80 median fluorescence intensity (monocyte derived DC [4]; [10]): 47.2 +/− 18.9; CD 83 median fluorescence intensity (monocyte derived DC [4]; [10]): 47.3 +/− 9^; CD 86 median fluorescence intensity (monocyte derived DC [4]; [10]): 159.8 +/− 29.3; HLA-DR median fluorescence intensity (monocyte derived DC [4]; [10]): 426.9 +/− 131.9
